Measurements as given in paper PMC9973354 (mBio, 2022).
Starred links: 1 amine or outer side, 2 acyl side, 3 side chain; linkers in the order of their positions; H or OH if unused. Positions of bridges follow the written chain, without caps; N, C: chain ends. Non-standard residues stand in square brackets, D forms with d. Residues, ends and D or L forms follow the SMILES beside them. ξ: configuration not given here. X1 = O=C([C@@H]1CCN=C2C(N[*:1])=Cc3cc(O)c(O)cc3N21)[*:2]; ξOrn(N(OH)CHO) = NC(CCCN(O)C=O)C(=O)O; Suc = O=C(CCC(=O)[*:2])[*:1]; ξK = NCCCCC(N)C(=O)O; ξS = NC(CO)C(=O)O

Key:
[1] = tested on: PA14 ΔfpvA ΔfpvB pHERD20T-fpvB; experiment: Checkerboard assay TS and siderophores, FpvB expressed; assay type: cell-based, Pseudomonas aeruginosa; settings: 10:90 + 2% arabinose
Source text: We investigated this hypothesis by treating the ΔfpvA ΔfpvB mutant complemented with fpvA or fpvB with TS and pyoverdine-Fe^3+. If pyoverdine competes with TS for the same binding site in the transporter, a reduction in TS susceptibility would be expected, as competition would decrease entry of the antibiotic into the cell. TS susceptibility decreased >8-fold with increasing concentrations of pyoverdine-Fe^3+ when FpvA was expressed (see Fig. S2A in the supplemental material).
Supplementary file : FIG S2 Checkerboard assays of the PA14 ΔfpvA ΔfpvB strain complemented with fpvA and fpvB in trans with TS and siderophores. […] Checkerboards of the PA14 ΔfpvA ΔfpvB pHERD20T-fpvB strain with TS and enterobactin (G), ferrioxamine E (H), and arthrobactin (I). Results are averaged from three independent biological replicates. Cells in the assay were grown in 10:90 + 2% arabinose. Download FIG S2, EPS file, 2.2 MB.
Checkerboards (8 rows by 8 columns) were conducted as previously described in a 96-well plate (Nunc) ([13], [14]). TS at 75× the final concentration dissolved in DMSO was added in columns from bottom to top in increasing concentrations. […] The next day, the OD600 was determined with a plate reader (Thermo Scientific) and normalized to percent of growth of the vehicle control (DMSO) after subtracting the OD600 from blank media.

[2] = target: T1, FpvB R648C (Pseudomonas aeruginosa, UniProt A0A0H2ZFZ5, R648C); experiment: Whole-cell fluorescence quenching, FpvB R648C in ΔfpvA ΔfpvB; assay type: binding
T1 sequence (A0A0H2ZFZ5 23-802 R648C): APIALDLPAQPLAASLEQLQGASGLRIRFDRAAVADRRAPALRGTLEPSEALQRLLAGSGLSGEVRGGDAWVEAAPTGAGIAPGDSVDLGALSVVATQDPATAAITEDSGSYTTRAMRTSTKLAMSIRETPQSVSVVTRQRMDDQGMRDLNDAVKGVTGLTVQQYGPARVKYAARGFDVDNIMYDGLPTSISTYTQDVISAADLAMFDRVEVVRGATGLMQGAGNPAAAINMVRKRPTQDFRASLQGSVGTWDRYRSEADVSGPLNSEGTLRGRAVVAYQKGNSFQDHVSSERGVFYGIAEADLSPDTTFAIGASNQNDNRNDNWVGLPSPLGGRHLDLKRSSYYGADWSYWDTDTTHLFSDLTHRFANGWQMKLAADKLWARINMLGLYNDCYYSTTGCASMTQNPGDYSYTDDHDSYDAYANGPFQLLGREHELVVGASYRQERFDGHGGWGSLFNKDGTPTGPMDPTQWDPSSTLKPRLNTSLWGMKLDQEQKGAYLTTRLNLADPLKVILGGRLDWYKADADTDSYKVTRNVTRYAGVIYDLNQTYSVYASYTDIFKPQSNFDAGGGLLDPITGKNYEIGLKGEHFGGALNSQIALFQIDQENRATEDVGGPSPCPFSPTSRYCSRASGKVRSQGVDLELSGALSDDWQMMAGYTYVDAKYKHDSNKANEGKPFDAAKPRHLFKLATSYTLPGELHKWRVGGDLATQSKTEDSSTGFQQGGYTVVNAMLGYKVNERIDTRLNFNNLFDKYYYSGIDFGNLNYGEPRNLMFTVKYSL
Source text: (§1) To determine the affinity of the siderophores for FpvA and FpvB, we adapted the method from Chakravorty et al. to generate a whole-cell sensor where fluorescence quenching serves as an indicator of ligand interaction ([31]). Siderophore binding triggers conformational changes at the extracellular loops of the TBDT (Fig. 3A). Cys substitutions were introduced at the loops and labeled with a fluorescent maleimide dye. When a ligand binds the transporter, the loops fold inward toward the lumen of the barrel, and changes in the chemical environment surrounding the fluorophore lead to quenching ([31], [32]). Fluorescence recovery occurs once the siderophore is taken up and the loop returns to its original conformation.
Cells were cultured overnight in LB with carbenicillin (200 μg/mL) at 37°C with shaking at 200 rpm. Cells were subcultured (1:200 dilution) in 10:90 plus 2% arabinose for 4 h without carbenicillin at 37°C with shaking at 200 rpm. […] Excess dye was quenched with 1 mM dithiothreitol (DTT) (Sigma) to stop the reaction. Cells were washed 3× with PBS. For fluorescence recovery assays, cells were incubated with 1× PBS plus 0.4% glucose at 37°C with shaking at 200 rpm. Glucose was prepared as a 20% stock (wt/vol) in 1× PBS and filter sterilized. Cells were spun down and washed 3× with 1× PBS and resuspended in 1× PBS for quenching assays and 1× PBS plus 0.4% glucose for fluorescence recovery assays.
(§2) For fluorescence quenching and recovery assays, cells were diluted to an OD600 of 0.1 for both types of assays, and 148 μL was added into wells of a 96-well black plate (Corning). Fluorescence was recorded for 5 min at 1-min intervals at 37°C (BioTek Neo; excitation, 494 nm; emission, 520 nm). After 5 min, 2 μL of each serial dilution for ferrioxamine-Fe^3+, ferrichrome-Fe^3+, and pyoverdine-Fe^3+ or DMSO for vehicle controls was added to each well. Fluorescence was recorded immediately for quenching assays and for 1 h at 1-min intervals for fluorescence recovery assays. Background fluorescence was subtracted from all fluorescence readings and 1-F/F0 was used to calculate the degree of quenching, where F0 is the initial fluorescence. Kd was calculated using GraphPad Prism using a one-site specific binding model or a two-site model. For fluorescence recovery assays, background was subtracted from all fluorescence readings and F/F0 expressed as a percent of control was plotted versus time.

[3] = target: T1, FpvB R648C; experiment: Fluorescence recovery assay (siderophore uptake by FpvB); assay type: cell-based; settings: siderophore at 1/2 Kd (1/2 Kd2 for ferrioxamine B), recorded for 1 h
Experimental: Cells were equilibrated for 5 min prior to introduction of the siderophores. Fluorescence was recorded every min for 1 h. Carbonyl cyanide m-chlorophenylhydrazone (CCCP) was used as a control to inhibit fluorescence recovery through dissipation of the proton motive force (PMF) ([2], [3]), which is required for uptake.
Cells were cultured overnight in LB with carbenicillin (200 μg/mL) at 37°C with shaking at 200 rpm. Cells were subcultured (1:200 dilution) in 10:90 plus 2% arabinose for 4 h without carbenicillin at 37°C with shaking at 200 rpm. Cells were harvested by centrifugation for 5 min and 6,000 × g and resuspended in sterile 1× phosphate-buffered saline (PBS) (pH 7.4); 1× PBS was made from a 10× stock (80 g NaCl, 2 g KCl, 26.8 g Na2 HPO4-7H2O, 2.4 g KH2PO4 in 1 L of deionized H2O) with 10 μM Alexa Fluor 594 C5 maleimide for microscopy or fluorescein-5-maleimide for fluorescence quenching and recovery assays and incubated in the dark at […] for 30 min on a shaking incubator at 37°C (200 rpm). Excess dye was quenched with 1 mM dithiothreitol (DTT) (Sigma) to stop the reaction. Cells were washed 3× with PBS. For fluorescence recovery assays, cells were incubated with 1× PBS plus 0.4% glucose at 37°C with shaking at 200 rpm. […] Cells were spun down and washed 3× with 1× PBS and resuspended in 1× PBS for quenching assays and 1× PBS plus 0.4% glucose for fluorescence recovery assays.
as §2, with “After 5 min, 2 μL of each serial dilution for ferrioxamine-Fe^3+, ferrichrome-Fe^3+, and pyoverdine-Fe^3+ or DMSO for vehicle controls was added to each well.” left out, “For fluorescence recovery assays, background was subtracted from all fluorescence readings and F/F0 expressed as a percent of control was plotted versus time.” left out

[4] = target: T2, FpvA T660C (Pseudomonas aeruginosa, UniProt P48632, T660C); experiment: Whole-cell fluorescence quenching, FpvA T660C; assay type: binding; settings: cells expressing FpvA T660C
T2 construct: expressed in transfected cells; host or cells: P. aeruginosa PA14 ΔfpvA ΔfpvB, plasmid pHERD20T-fpvA T660C, arabinose-induced
Source text: as §1
Cells were cultured overnight in LB with carbenicillin (200 μg/mL) at 37°C with shaking at 200 rpm. […] Cells were harvested by centrifugation for 5 min and 6,000 × g and resuspended in sterile 1× phosphate-buffered saline (PBS) (pH 7.4); 1× PBS was made from a 10× stock (80 g NaCl, 2 g KCl, 26.8 g Na2 HPO4-7H2O, 2.4 g KH2PO4 in 1 L of deionized H2O) with 10 μM Alexa Fluor 594 C5 maleimide for microscopy or fluorescein-5-maleimide for fluorescence quenching and recovery assays and incubated in the dark at room temperature for 30 min on a shaking incubator at 37°C (200 rpm). […]

[5] = target: T1, FpvB R648C; experiment: Whole-cell fluorescence quenching, FpvB R648C in quadruple mutant; assay type: binding
Experimental: (§3) Quenching assays with the two xenosiderophores were repeated for the quadruple TBDT mutant expressing WT FpvB, FpvB R191A R648C, or W347V R648C.
(§4) Cells were cultured overnight in LB with carbenicillin (200 μg/mL) at 37°C with shaking at 200 rpm. Cells were subcultured (1:200 dilution) in 10:90 plus 2% arabinose for 4 h without carbenicillin at 37°C with shaking at 200 rpm. Cells were harvested by centrifugation for 5 min and 6,000 × g and resuspended in sterile 1× phosphate-buffered saline (PBS) (pH 7.4); 1× PBS was made from a 10× stock (80 g NaCl, 2 g KCl, 26.8 g Na2 HPO4-7H2O, 2.4 g KH2PO4 in 1 L of deionized H2O) with 10 μM Alexa Fluor 594 C5 maleimide for microscopy or fluorescein-5-maleimide for fluorescence quenching and recovery assays and incubated in the dark at room temperature for 30 min on a shaking incubator at 37°C (200 rpm). Excess dye was quenched with 1 mM dithiothreitol (DTT) (Sigma) to stop the reaction. Cells were washed 3× with PBS. For fluorescence recovery assays, cells were incubated with 1× PBS plus 0.4% glucose at 37°C with shaking at 200 rpm. Glucose was prepared as a 20% stock (wt/vol) in 1× PBS and filter sterilized. Cells were spun down and washed 3× with 1× PBS and resuspended in 1× PBS for quenching assays and 1× PBS plus 0.4% glucose for fluorescence recovery assays.
as §2

[6] = target: T3, FpvB R191A R648C (Pseudomonas aeruginosa, UniProt A0A0H2ZFZ5, R191A/R648C); experiment: Whole-cell fluorescence quenching, FpvB R191A R648C; assay type: binding
T3 sequence (A0A0H2ZFZ5 23-802 R191A/R648C): T1 sequence (A0A0H2ZFZ5 23-802 R648C)
Experimental: as §3, §4, §2

[7] = target: T4, FpvB W347V R648C (Pseudomonas aeruginosa, UniProt A0A0H2ZFZ5, R648C/W347V); experiment: Whole-cell fluorescence quenching, FpvB W347V R648C; assay type: binding
T4 sequence (A0A0H2ZFZ5 23-802 W347V/R648C): T1 sequence (A0A0H2ZFZ5 23-802 R648C)
Experimental: as §3, §4, §2

[8] = FpvB R648C in quadruple mutant, two-site model

T2 sequence (P48632 44-815 T660C): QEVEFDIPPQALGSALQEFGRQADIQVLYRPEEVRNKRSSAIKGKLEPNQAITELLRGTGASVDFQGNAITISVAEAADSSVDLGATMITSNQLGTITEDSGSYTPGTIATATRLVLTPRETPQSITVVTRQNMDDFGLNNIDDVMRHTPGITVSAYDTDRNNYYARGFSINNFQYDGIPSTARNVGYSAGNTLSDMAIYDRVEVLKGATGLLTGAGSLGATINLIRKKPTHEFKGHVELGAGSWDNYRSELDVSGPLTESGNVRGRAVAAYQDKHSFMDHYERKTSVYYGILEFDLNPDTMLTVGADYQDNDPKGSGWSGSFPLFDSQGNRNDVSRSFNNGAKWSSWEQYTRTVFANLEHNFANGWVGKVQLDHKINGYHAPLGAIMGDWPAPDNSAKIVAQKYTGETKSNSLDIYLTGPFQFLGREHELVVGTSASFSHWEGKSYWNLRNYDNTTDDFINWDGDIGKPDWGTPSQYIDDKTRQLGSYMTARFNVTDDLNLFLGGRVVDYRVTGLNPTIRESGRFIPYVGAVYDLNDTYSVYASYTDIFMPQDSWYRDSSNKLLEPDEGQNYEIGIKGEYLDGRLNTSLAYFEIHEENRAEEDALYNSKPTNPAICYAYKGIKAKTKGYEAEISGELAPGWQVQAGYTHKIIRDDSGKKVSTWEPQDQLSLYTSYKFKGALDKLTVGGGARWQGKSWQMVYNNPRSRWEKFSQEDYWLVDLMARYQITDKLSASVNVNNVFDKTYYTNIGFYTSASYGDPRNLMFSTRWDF

| Compound | effect of siderophore on TS susceptibility [1] | Kd for FpvB relative to FpvA ([2]; higher for FpvB) | fluorescence recovery [3] | fluorescence quenching [4] | Kd ([5]; FpvB R648C in ΔfpvA ΔfpvB ΔfiuA ΔfoxA) | increase of Kd by the mutation ([6]; R191A versus FpvB R648C) | increase of Kd by the mutation ([7]; W347V versus FpvB R648C) | Kd1 ([2]; FpvB R648C in ΔfpvA ΔfpvB, two-site model, higher-affinity site) | Kd2 ([2]; FpvB R648C in ΔfpvA ΔfpvB, two-site model, lower-affinity site) | Kd1 [5, 8] | Kd2 [5, 8] | Kd ([6]; FpvB R191A R648C, one-site model) | Kd ([7]; FpvB W347V R648C, one-site model) |
| --- | --- | --- | --- | --- | --- | --- | --- | --- | --- | --- | --- | --- | --- |
| NCCCCC(NC(=O)C(CO)NC(=O)[C@@H]1CCN=C2C(NC(=O)CCC(=O)O)=Cc3cc(O)c(O)cc3N21)C(=O)NCC(=O)NC(CCCN(O)C=O)C(=O)NC1CCCCNC(=O)C(CO)NC(=O)C(CCCN(O)C=O)NC1=O.[Fe+3] (some centres unmarked) [pyoverdine-Fe^3+] (Suc-[X1][ξS][ξK]G[ξOrn(N(OH)CHO)][ξK][ξOrn(N(OH)CHO)][ξS]; lactam 6-C) | did not impact TS susceptibility | 200 fold | No recovery |  |  |  |  |  |  |  |  |  |  |
| ferrichrome-Fe^3+ |  |  |  | ~ 20% | 0.0085 ± 0.0008 µg/mL | 76 fold | > 76 fold |  |  |  |  |  |  |
| CC(=O)N([O-])CCCCCNC(=O)CCC(=O)N([O-])CCCCCNC(=O)CCC(=O)N([O-])CCCCCN.[Fe+3] [ferrioxamine B-Fe^3+] |  |  |  | No quenching |  |  |  | 1.0 × 10^2 ± 50 ng/mL | 270000 ± 47000 ng/mL | 1.0x10^2 ± 59 ng/mL | 370000 ± 95000 ng/mL | 300 ± 43 µg/mL | 490 ± 68 µg/mL |
